Experimental data as given in patent US20240287123A1 (Victoria Link Limited, priority 2021, published 2024).
Entries after “also recorded” stand apart in the source; their conditions may differ. Where two headings read alike, the source gives them in different places.

How the values were obtained:
EBV (Akata/Akata) = test: EBV assay: viral DNA quantification in induced Akata cells; type: cell-based, Epstein-Barr virus; settings: for activity against EBV: cell-based assay, highest concentration tested in primary assays 50 μM
Procedure: Akata cells were obtained from Louisiana State University, Baton Rouge, LA. The HCMV strain AD169 was obtained from the American Type Culture Collection (ATCC, Manassas, VA). Akata cells latently infected with EBV were obtained from Louisiana State University, Baton Rouge, LA.
(§1) Each experiment that evaluates the antiviral activity of compounds includes both positive and negative control compounds to ensure the performance of each assay. Concurrent assessment of cytotoxicity was also performed for each study in the same cell line and with the same compound exposure.
Assays for EBV were performed by reported methods.^37 Akata cells were induced to undergo a lytic infection with 50 μg/ml of a goat anti-human IgG antibody. Experimental compounds were diluted within plates. The cells were added and incubated for 72 h. Similar plates were initiated without virus induction/addition and used for measuring cytotoxicity by the addition of CTG. For all assays, the replication of the virus was assessed by the quantification of viral DNA. For EBV, primers 5′-[…]-3′ and 5′-CAG TTC CTC GCCTTAGGTTG-3 amplified a fragment corresponding to coordinates 96802-97234 in EBV genome (AJ507799). Compound concentrations sufficient to reduce genome copy number by 50% were calculated from experimental data as well as compound cytotoxicity.

HHV-6B (Z29; MOLT-3) = test: HHV-6B antiviral assay (Z29; MOLT-3); type: cell-based, human betaherpesvirus 6B
[1] = Cytotoxicity in Akata cells (CTG), concurrent with EBV assay; type: cell-based; settings: human, Table 1
Procedure: as §1
Assays for EBV were performed by reported methods.^37 Akata cells were induced to undergo a lytic infection with 50 μg/ml of a goat anti-human IgG antibody. Experimental compounds were diluted within plates. The cells were added and incubated for 72 h. Similar plates were initiated without virus induction/addition and used for measuring cytotoxicity by the addition of CTG. For all assays, the replication of the virus was assessed by the quantification of viral DNA. […] Compound concentrations sufficient to reduce genome copy number by 50% were calculated from experimental data as well as compound cytotoxicity.

HIVADA = test: HIV p24 alphaLISA in infected monocyte derived macrophages; type: cell-based, Human Immunodeficiency Virus
Procedure: Primary human MDMs were cultured from peripheral blood mononuclear cells and pre-treated for 24 h with ddhC (100 μM), compound 8 (100 μM), compound 21 (100 μM), emtricitabine control (15 μM, 10 μM, 1 μM, 0.1 μM), or the drug vehicle, DMSO. MDM were then infected with HIVADA in the presence of these compounds and treated daily (with compound), while culture supernatants were collected to quantify levels of HIV p24, a viral capsid protein, on days 2-7 of infection.
Leukopaks from healthy donors were obtained from the New York Blood Center and processed by Ficoll gradient centrifugation to isolate peripheral blood mononuclear cells (PBMC). These PBMC were cultured adherently into monocyte derived macrophages (MDM), according to published protocols, on 60 mm dishes for 6 days with 10-20 ng/ml macrophage colony stimulating factor (M-CSF). MDM were pre-treated with ddhC, compound 8, compound 21, emtricitabine (Cat. No .: 10071), or DMSO vehicle at indicated concentrations for 24 hours (NIH AIDS Reagent Program, Bethesda, MD). Cells were left uninfected or infected for 24 h in the presence of one of the compounds listed above with 20 ng/mL HIVADA, a macrophage-tropic HIV strain originally derived from a person with HIV (NIH). Media was changed daily with the mentioned compounds added each time, and supernatants were collected on days 2, 3, 4, 5, 6, and 7 of infection. Each treatment condition was analyzed in duplicate plates per experiment.
Supernatant samples were analyzed for the viral capsid protein, HIV p24, by a sensitive p24 alphaLISA according to the manufacturer's protocol (Perkin-Elmer, Waltham, MA). Treatment conditions were analyzed in duplicate plates, and each supernatant was analyzed in duplicate on a 96-well alphaLISA plate. These were then fit to a sigmoid standard curve to extrapolate HIV p24 levels in pg/mL within the assay limits of detection.

primary human MDM = test: Toxicity to MDM: LDH assay and light microscopy; type: cell-based
Procedure: Light microscopy was used to image MDMs on day 7 of infection. […] Colorimetric LDH assays were also performed on culture supernatants from these same cells on day 4 of infection to assess cell death.
At the end of each experiment, cells were imaged by light microscopy. After aspirating off media, cells were washed with PBS, and lysates were harvested in extraction buffer containing 0.1% Formic acid, 50% ACN, 40% MeOH, 10% H2O.
Drug toxicity was analyzed using an LDH assay kit according to manufacturer's instructions (Abcam #ab65393, Toronto, Canada). Briefly, supernatants from duplicate plates per treatment condition were added to a 96-well plate. Each supernatant was run in triplicate. Provided assay buffer was added to culture supernatants after mixing with a substrate solution that turns orange upon lactate exposure. After incubation for 30-45 min, colorimetric signal was quantified an OD of 450 nm. LDH was a positive control as well as cells lysed with 10% lysis buffer in media representing the “high control” to which % cytotoxicity was measured. The reference sample was either control uninfected cells treated with DMSO or negative control HIV-infected cells treated with DMSO. Culture media alone was used as a technical negative control. This background signal that was subtracted from all test wells.

[2] = human gammaherpesvirus 4, Akata, read-out: Result for compound (EC50/UM), EBV Akata/Akata, assay order Secondary
[3] = human gammaherpesvirus 4, Akata, Akata/Akata, Table 1, read-out: EBV EC50
[4] = human gammaherpesvirus 4, Akata, read-out: EC50 against EBV
[5] = human gammaherpesvirus 4, Akata, read-out: Result for compound (EC50/UM), EBV Akata/Akata, assay order Primary
[6] = human gammaherpesvirus 4, Akata, EBV Akata/Akata, assay order Secondary, read-out: Result for compound (EC50/UM)

CC(C)(C)C(=O)SCCOP(=O)(OCCSC(=O)C(C)(C)C)OCC1=C[C@@H](O)[C@H](n2ccc(NO)nc2=O)O1
EC50 (EBV (Akata/Akata); [2]): 16.6 µM

Nc1ccn(C[C@@H](CO)OCP(=O)(O)O)c(=O)n1 [Cidofovir, cidofovir, reference compound]
EC50 (HHV-6B (Z29; MOLT-3); cidofovir (CDV) control, MOLT-3, HHV-6B, control run alongside, Primary, read-out: CDV control result (EC50/UM)): 3.42 µM | EC50 (HHV-6B (Z29; MOLT-3); cidofovir (CDV) control, MOLT-3, HHV-6B, control run alongside, Secondary, read-out: CDV control result (EC50/UM)): 4.26 µM | EC50 (EBV (Akata/Akata); EBV Akata/Akata, control run alongside, Primary, read-out: CDV control result (EC50/UM)): 2.58 µM | EC50 (EBV (Akata/Akata); EBV Akata/Akata, control run alongside, Secondary, read-out: CDV control result (EC50/UM)): 1.93 µM | EC50 (EBV (Akata/Akata); [3]): 8.25 µM | EC50 (EBV (Akata/Akata); [4]): 8.25 µM | EC50 (EBV (Akata/Akata); read-out: CDV control result (EC50/UM), EBV Akata/Akata, control run alongside, Secondary): 5.95 µM | CC50 at 72 h ([1]; Akata cells (without virus induction)): > 100 µM

CC(C)OC(=O)[C@H](C)N[P@](=O)(OCC1=C[C@@H](O)[C@H](n2ccc(N)nc2=O)O1)Oc1ccccc1 [Compound 21, 3′-Deoxy-3′,4′-didehydrocytidine-5′-O-[phenyl(isopropoxy-L-alaninyl) ]-Sp-phosphoramidate]
levels of HIV p24 viral capsid protein (HIVADA; 100 μM, infected MDM, days 2-7, compared with DMSO control): significantly reduce; also recorded: significantly decreased | impact on HIV replication relative to the DMSO control (HIVADA; low doses: compound 8 compound 21 (0.1-1 μM) as printed): minimal impact | activity against EBV (EBV (Akata/Akata)): more weakly inhibiting | EC50 (EBV (Akata/Akata); [3]): 23.7 µM | EC50 (EBV (Akata/Akata); [5]): 23.8 µM | EC50 (EBV (Akata/Akata); [4]): 7.6 to 38.7 µM | LDH activity in HIV-infected MDMs relative to DMSO controls (primary human MDM; 100 μM, day 4 of infection): nearly identical | toxicity to MDMs (primary human MDM; 100 uM, visual inspection by light microscopy and colorimetric LDH assays): non-toxic | CC50 at 72 h [1]: > 50 µM

CC(C)(C)C(=O)OCC1=C[C@@H](O)[C@H](n2ccc(N)nc2=O)O1 [Compound 25]
activity against EBV (EBV (Akata/Akata)): comparably active

CCCCCC(=O)OCC1=C[C@@H](O)[C@H](n2ccc(N)nc2=O)O1 [Compound 27]
activity against EBV (EBV (Akata/Akata)): inactive

CC(C)[C@H](N)C(=O)OCC1=C[C@@H](O)[C@H](n2ccc(N)nc2=O)O1 [Compound 30, 3′,4′-Didehydro-3′-deoxy-5′-O-L-valinoylcytidine]
activity against EBV (EBV (Akata/Akata)): comparably active

CCC(CC)COC(=O)[C@H](C)N[P@](=O)(OCC1=C[C@@H](O)[C@H](n2ccc(N)nc2=O)O1)Oc1ccccc1 [Compound 32, 3′,4′-Didehydro-3′-deoxycytidine-5′-0-{phenyl [2-(ethyl)but-1-yloxy-L-alaninyl] }-Sp-phosphoramidate]
activity against EBV (EBV (Akata/Akata)): not active

CC(C)(C)C(=O)OCOP(=O)(OCOC(=O)C(C)(C)C)OCC1=C[C@@H](O)[C@H](n2ccc(N)nc2=O)O1 [Compound 35, 3′,4′-Didehydro-3′-deoxycytidine-5′-bis(pivaloyloxymethyl)phosphate]
activity against EBV (EBV (Akata/Akata)): inactive

CC(C)C(=O)OCC1=CC[C@H](n2ccc(N)nc2=O)O1 [Compound 39, 3′,4′-Didehydro-2′,3′-dideoxy-5′-O-isobutyroylcytidine]
activity against HHV-6B (HHV-6B (Z29; MOLT-3)): active | EC50 (HHV-6B (Z29; MOLT-3); Human betaherpesvirus 6B, MOLT-3, HHV-6B Z29, MOLT-3, Primary, read-out: Result for compound (EC50/UM)): 5.54 µM | EC50 (HHV-6B (Z29; MOLT-3); Human betaherpesvirus 6B, MOLT-3, HHV-6B Z29, MOLT-3, Secondary, read-out: Result for compound (EC50/UM)): 16.7 µM | activity against EBV (EBV (Akata/Akata)): activity comparable to their 2′-hydroxylated analogues

Nc1ccn([C@H]2CC=C(CO)O2)c(=O)n1 [Compound A-30, 3′,4′-Didehydro-2′,3′-dideoxycytidine]
activity against EBV (EBV (Akata/Akata)): activity comparable to their 2′-hydroxylated analogues

CC(C)C(=O)OCC1=C[C@@H](O)[C@H](n2ccc(N)nc2=O)O1 [drawing 64, 3′-Deoxy-3′,4′-didehydro-5′-O-isobutyroyl-cytidine]
EC50 (EBV (Akata/Akata); [6]): 16.1 µM

CC(=O)OCC1=C[C@@H](O)[C@H](n2ccc(N)nc2=O)O1 [drawing 67]
EC50 (EBV (Akata/Akata); [5]): 8.96 µM

CC(=O)OCC1=C[C@@H](O)[C@H](n2ccc(N)nc2=O)O1 [drawing 68]
EC50 (EBV (Akata/Akata); [2]): 7.96 µM

CC(C)(C)C(=O)OCC1=C[C@@H](O)[C@H](n2ccc(N)nc2=O)O1 [drawing 69]
EC50 (EBV (Akata/Akata); [6]): 15.9 µM

CC(C)[C@H](N)C(=O)OCC1=C[C@@H](O)[C@H](n2ccc(N)nc2=O)O1 [drawing 70]
EC50 (EBV (Akata/Akata); [6]): 18.5 µM

Nc1ccn([C@H]2CC=C(CO)O2)c(=O)n1 [drawing 72, 3′,4′-Didehydro-2′,3′-dideoxycytidine]
EC50 (EBV (Akata/Akata); [5]): 29.6 µM

CC(C)C(=O)OCC1=CC[C@H](n2ccc(N)nc2=O)O1 [drawing 73, 3′,4′-Didehydro-2′,3′-dideoxy-5′-O-isobutyroylcytidine]
EC50 (EBV (Akata/Akata); [5]): 6.31 µM

CC(C)C(=O)OCC1=CC[C@H](n2ccc(N)nc2=O)O1 [drawing 74, 3′,4′-Didehydro-2′,3′-dideoxy-5′-O-isobutyroylcytidine]
EC50 (EBV (Akata/Akata); [6]): 7.09 µM

CCCCCC(=O)OCC1=C[C@@H](O)[C@H](n2ccc(N)nc2=O)O1 [drawing 75]
EC50 (EBV (Akata/Akata); [5]): > 50 µM

CC(C)(C)C(=O)OCOP(=O)(OCOC(=O)C(C)(C)C)OCC1=C[C@@H](O)[C@H](n2ccc(N)nc2=O)O1 [drawing 76]
EC50 (EBV (Akata/Akata); [5]): > 50 µM

CCC(CC)COC(=O)[C@H](C)N[P@](=O)(OCC1=C[C@@H](O)[C@H](n2ccc(N)nc2=O)O1)Oc1ccccc1 [drawing 77]
EC50 (EBV (Akata/Akata); [5]): > 50 µM
